{"source": "ChEMBL document CHEMBL4507292", "about": "(2021)", "key": {"[1]": {"molecular_target": "Epidermal growth factor receptor (Homo sapiens, UniProt P00533)", "sequence (P00533 whole entry)": "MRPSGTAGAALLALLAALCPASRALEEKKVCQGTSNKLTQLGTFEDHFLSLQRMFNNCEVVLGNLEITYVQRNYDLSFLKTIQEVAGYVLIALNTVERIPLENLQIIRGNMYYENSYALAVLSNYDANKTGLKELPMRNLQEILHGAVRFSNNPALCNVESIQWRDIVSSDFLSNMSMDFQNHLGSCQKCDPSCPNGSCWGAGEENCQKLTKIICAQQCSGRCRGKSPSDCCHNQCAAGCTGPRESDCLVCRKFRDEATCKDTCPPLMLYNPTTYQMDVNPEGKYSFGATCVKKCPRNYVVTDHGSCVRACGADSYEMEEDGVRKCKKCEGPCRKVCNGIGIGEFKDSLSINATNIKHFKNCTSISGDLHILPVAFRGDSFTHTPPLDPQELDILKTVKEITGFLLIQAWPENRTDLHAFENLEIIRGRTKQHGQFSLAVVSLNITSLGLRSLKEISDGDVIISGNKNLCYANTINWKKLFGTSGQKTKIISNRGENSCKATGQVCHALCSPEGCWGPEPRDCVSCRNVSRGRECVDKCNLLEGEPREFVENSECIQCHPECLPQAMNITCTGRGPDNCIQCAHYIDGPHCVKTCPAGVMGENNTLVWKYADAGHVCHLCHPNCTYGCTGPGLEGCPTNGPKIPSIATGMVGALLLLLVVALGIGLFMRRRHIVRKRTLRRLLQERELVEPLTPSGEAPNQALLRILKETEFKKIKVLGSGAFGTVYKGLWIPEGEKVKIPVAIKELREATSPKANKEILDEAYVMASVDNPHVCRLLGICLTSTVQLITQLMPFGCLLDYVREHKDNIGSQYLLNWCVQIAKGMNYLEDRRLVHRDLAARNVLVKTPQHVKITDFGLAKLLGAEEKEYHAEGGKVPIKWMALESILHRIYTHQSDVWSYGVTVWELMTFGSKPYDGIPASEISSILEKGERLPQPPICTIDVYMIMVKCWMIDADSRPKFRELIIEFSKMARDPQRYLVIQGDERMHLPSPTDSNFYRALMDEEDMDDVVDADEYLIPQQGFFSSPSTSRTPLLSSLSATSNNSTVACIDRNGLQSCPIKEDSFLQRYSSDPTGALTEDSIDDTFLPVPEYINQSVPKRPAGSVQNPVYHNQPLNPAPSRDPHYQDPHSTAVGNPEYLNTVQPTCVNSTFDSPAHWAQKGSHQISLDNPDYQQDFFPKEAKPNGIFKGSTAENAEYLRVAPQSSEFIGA", "experiment": "Inhibition of Epidermal Growth Factor (EGF) at 10 µM in the Eurofins-Panlabs radioligand binding assay (Eurofins_assay_225510)"}, "Rattus norvegicus [2]": {"species": "Rattus norvegicus", "experiment": "Inhibition of Glutamate, NMDA, Phencyclidine at 10 µM in the Eurofins-Panlabs radioligand binding assay (Eurofins_assay_233000)", "assay_type": "protein-complex assay"}, "[3]": {"molecular_target": "monoamine oxidase A (MAO-A) (Homo sapiens, UniProt P21397)", "sequence (P21397 whole entry)": "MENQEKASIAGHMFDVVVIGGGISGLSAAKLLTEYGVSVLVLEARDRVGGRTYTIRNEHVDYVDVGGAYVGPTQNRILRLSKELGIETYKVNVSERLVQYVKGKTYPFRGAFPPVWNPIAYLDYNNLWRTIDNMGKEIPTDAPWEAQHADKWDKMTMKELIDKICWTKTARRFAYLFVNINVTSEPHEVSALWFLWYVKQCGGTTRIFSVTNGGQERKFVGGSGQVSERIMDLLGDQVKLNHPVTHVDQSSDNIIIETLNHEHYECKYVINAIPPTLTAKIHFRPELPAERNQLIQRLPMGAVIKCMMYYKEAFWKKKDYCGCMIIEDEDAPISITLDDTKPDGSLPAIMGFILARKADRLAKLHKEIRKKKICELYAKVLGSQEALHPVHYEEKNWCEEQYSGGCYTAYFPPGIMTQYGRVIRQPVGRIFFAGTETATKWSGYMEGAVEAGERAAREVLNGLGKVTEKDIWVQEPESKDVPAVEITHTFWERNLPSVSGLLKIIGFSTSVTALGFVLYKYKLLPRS", "experiment": "Inhibition of Monoamine Oxidase MAO-A at compound concentration of 10.0 uM in the Eurofins-Panlabs enzyme assay (Eurofins_assay_140010)", "parameters": "substrate with concentration 50 uM Kynuramine, incubation time 60 min, incubation temperature 37 C", "conditions": "human recombinant MAO-A expressed in insect Hi5 cells, probe kynuramine, 50 uM, compound concentration 10 uM; call rule not given here"}, "[4]": {"molecular_target": "T1, Alpha-2A adrenergic receptor (Homo sapiens) (UniProt P08913)", "T1 sequence (whole entry)": "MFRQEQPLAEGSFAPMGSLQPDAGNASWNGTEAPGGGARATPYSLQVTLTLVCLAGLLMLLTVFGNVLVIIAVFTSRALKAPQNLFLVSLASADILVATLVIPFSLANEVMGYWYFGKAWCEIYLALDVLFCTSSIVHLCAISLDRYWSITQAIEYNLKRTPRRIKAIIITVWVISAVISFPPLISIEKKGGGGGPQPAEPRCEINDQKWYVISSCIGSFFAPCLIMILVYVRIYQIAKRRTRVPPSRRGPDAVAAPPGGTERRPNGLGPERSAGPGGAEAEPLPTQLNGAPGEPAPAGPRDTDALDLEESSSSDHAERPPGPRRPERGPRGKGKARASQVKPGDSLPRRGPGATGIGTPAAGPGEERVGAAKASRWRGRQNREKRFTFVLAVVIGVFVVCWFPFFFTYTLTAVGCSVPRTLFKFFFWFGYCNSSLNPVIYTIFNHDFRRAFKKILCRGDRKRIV", "experiment": "(§1) Adrenergic alpha2A Eurofins-Panlabs radioligand binding assay", "parameters": "ligand concentration 1 nM, non-specific ligand with concentration 10 µM WB-4101, incubation time 60 min, incubation temperature 25 °C"}, "[5]": {"molecular_target": "Alpha-2A adrenergic receptor (Homo sapiens, UniProt P08913)", "experiment": "as §1", "parameters": "ligand concentration 1 nM, non-specific ligand with concentration 10 µM WB-4101, incubation time 60 min, incubation temperature 25 °C"}, "[6]": {"molecular_target": "C-X-C chemokine receptor type 2 (Homo sapiens) (UniProt P25025)", "sequence (P25025 whole entry)": "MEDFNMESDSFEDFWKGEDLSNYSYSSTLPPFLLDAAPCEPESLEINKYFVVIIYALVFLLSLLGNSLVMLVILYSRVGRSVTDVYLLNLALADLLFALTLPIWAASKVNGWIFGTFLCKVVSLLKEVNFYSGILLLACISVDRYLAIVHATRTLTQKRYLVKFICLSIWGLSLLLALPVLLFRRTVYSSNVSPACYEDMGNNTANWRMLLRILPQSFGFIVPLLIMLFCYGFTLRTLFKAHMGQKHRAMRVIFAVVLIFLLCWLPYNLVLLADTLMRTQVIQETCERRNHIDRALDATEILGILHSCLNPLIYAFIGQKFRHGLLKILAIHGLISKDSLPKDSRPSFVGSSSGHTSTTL", "experiment": "Inhibition of Chemokine CXCR2 (IL-8RB) at 10 µM in the Eurofins-Panlabs radioligand binding assay (Eurofins_assay_244500)"}, "[7]": {"molecular_target": "T2, 5-hydroxytryptamine receptor 3A (Homo sapiens) (UniProt P46098)", "T2 sequence (whole entry)": "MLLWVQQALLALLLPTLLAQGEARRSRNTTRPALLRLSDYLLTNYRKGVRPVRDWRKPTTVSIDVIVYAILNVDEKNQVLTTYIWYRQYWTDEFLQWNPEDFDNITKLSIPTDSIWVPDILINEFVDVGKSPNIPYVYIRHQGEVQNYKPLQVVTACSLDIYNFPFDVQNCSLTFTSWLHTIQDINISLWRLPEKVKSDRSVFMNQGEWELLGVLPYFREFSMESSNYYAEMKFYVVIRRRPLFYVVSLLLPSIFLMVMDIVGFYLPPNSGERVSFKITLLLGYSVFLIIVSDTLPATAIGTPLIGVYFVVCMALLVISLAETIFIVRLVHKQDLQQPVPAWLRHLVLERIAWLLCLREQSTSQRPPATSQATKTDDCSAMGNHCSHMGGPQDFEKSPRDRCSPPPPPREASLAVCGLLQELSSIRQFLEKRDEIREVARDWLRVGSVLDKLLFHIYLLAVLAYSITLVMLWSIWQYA", "experiment": "Inhibition of Serotonin (5-Hydroxytryptamine) 5-HT3 at 10 µM in the Eurofins-Panlabs radioligand binding assay (Eurofins_assay_271910)", "parameters": "ligand concentration 0.69 nM", "conditions": "Compound concentration 10.0 uM"}, "[8]": {"molecular_target": "5-hydroxytryptamine receptor 6 (Homo sapiens) (UniProt P50406)", "sequence (P50406 whole entry)": "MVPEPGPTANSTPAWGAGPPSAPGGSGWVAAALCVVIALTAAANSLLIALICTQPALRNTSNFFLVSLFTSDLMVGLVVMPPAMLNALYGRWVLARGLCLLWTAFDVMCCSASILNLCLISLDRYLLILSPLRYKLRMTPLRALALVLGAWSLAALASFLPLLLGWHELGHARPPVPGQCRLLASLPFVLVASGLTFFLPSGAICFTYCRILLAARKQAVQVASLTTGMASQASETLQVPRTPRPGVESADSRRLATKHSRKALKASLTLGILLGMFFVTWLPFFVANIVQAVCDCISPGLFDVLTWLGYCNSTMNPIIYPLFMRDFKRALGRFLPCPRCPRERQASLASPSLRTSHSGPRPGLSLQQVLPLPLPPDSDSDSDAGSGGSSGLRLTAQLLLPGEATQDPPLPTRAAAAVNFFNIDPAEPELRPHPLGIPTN", "experiment": "Inhibition of Serotonin (5-Hydroxytryptamine) 5-HT6 at 10 µM in the Eurofins-Panlabs radioligand binding assay (Eurofins_assay_272200)"}, "[9]": {"molecular_target": "monoamine oxidase B (MAO-B) (Homo sapiens, UniProt P27338)", "sequence (P27338 whole entry)": "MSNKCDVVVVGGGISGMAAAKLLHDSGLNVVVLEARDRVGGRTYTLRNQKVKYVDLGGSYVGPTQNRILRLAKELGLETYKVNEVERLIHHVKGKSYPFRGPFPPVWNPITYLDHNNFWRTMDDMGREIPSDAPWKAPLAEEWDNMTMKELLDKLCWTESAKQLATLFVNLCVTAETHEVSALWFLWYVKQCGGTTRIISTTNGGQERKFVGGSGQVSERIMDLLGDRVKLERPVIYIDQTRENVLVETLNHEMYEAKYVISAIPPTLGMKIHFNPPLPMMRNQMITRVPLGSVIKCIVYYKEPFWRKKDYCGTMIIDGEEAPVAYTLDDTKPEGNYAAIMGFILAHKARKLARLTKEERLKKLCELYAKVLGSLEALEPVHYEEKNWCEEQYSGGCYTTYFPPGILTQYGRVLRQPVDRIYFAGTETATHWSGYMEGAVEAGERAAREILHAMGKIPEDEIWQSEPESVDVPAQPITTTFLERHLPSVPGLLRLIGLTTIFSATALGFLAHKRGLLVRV", "experiment": "Inhibition of Monoamine Oxidase MAO-B at compound concentration of 10.0 uM in the Eurofins-Panlabs enzyme assay (Eurofins_assay_140120)", "parameters": "substrate with concentration 50 uM Kynuramine, incubation time 60 min, incubation temperature 37 C", "conditions": "human recombinant MAO-B expressed in insect Hi5 cells, probe kynuramine, 50 uM, compound concentration 10 uM"}, "Caspase-3 (Homo sapiens)": {"molecular_target": "Caspase-3 (Homo sapiens) (UniProt P42574)", "experiment": "Peptidase, CASP3 (Caspase 3) Eurofins-Panlabs enzyme assay", "conditions": "Compound concentration 10.0 uM"}, "[10]": {"molecular_target": "Polyunsaturated fatty acid lipoxygenase ALOX12 (Homo sapiens) (UniProt P18054)", "experiment": "Lipoxygenase 12-LO Eurofins-Panlabs enzyme assay", "parameters": "substrate with concentration", "conditions": "Compound concentration 10.0 uM"}, "Caspase-7 (Homo sapiens)": {"molecular_target": "Caspase-7 (Homo sapiens) (UniProt P55210)", "sequence (P55210 24-198 limits assumed)": "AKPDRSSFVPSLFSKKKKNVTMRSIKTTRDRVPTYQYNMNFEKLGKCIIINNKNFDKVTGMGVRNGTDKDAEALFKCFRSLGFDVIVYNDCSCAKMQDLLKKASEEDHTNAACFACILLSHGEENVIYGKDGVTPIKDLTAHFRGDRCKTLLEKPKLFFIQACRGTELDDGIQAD", "sequence (P55210 207-303 limits assumed)": "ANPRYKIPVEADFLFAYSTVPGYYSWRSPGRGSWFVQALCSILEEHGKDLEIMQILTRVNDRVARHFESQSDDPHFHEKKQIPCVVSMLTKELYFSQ", "experiment": "Peptidase, CASP7 (Caspase 7) Eurofins-Panlabs enzyme assay", "conditions": "Compound concentration 10.0 uM"}, "Rattus norvegicus [11]": {"species": "Rattus norvegicus", "experiment": "Adrenergic α2, Non-selective Eurofins-Panlabs radioligand binding assay", "assay_type": "protein assay", "conditions": "Compound concentration 10.0 uM"}, "Homo sapiens [12]": {"species": "Homo sapiens", "experiment": "Calcitonin Gene-Related Peptide CGRP1 Eurofins-Panlabs radioligand binding assay", "assay_type": "protein-complex assay", "conditions": "Compound concentration 10.0 uM"}, "[13]": {"molecular_target": "Prostaglandin D2 receptor (Homo sapiens) (UniProt Q13258)", "sequence (Q13258 whole entry)": "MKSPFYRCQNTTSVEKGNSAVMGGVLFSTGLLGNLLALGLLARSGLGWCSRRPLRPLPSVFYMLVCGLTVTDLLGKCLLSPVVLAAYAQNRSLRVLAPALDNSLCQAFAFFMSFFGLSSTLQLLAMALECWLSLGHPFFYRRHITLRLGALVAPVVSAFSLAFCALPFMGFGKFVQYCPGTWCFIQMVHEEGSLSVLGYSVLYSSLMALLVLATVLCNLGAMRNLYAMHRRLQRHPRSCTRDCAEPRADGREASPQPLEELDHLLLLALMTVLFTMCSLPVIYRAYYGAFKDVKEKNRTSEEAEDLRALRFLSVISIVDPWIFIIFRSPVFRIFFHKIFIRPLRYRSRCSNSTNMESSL", "experiment": "Prostanoid DP Eurofins-Panlabs radioligand binding assay", "conditions": "Compound concentration 10.0 uM"}, "[14]": {"experiment": "(§2) Prostanoid, Thromboxane A2 (TP) Eurofins-Panlabs radioligand binding assay", "parameters": "species or system Homo sapiens; ligand concentration 5 nM, non-specific ligand with concentration 1 µM SQ-29548, incubation time 30 min, incubation temperature 25 °C"}, "Homo sapiens [15]": {"species": "Homo sapiens", "experiment": "as §2", "parameters": "ligand concentration 5 nM, non-specific ligand with concentration 1 µM SQ-29548, incubation time 30 min, incubation temperature 25 °C"}, "Rattus norvegicus [16]": {"species": "Rattus norvegicus", "experiment": "Serotonin (5-Hydroxytryptamine) 5-HT2, Non-Selective Eurofins-Panlabs radioligand binding assay", "assay_type": "protein assay", "conditions": "Compound concentration 10.0 uM"}, "[17]": {"molecular_target": "Somatostatin receptor type 2 (Homo sapiens) (UniProt P30874)", "experiment": "Somatostatin sst2 Eurofins-Panlabs radioligand binding assay", "parameters": "ligand concentration 0.1 nM", "conditions": "Compound concentration 10.0 uM"}, "[18]": {"molecular_target": "Beta-1 adrenergic receptor (Homo sapiens) (UniProt P08588)", "sequence (P08588 whole entry, looked up)": "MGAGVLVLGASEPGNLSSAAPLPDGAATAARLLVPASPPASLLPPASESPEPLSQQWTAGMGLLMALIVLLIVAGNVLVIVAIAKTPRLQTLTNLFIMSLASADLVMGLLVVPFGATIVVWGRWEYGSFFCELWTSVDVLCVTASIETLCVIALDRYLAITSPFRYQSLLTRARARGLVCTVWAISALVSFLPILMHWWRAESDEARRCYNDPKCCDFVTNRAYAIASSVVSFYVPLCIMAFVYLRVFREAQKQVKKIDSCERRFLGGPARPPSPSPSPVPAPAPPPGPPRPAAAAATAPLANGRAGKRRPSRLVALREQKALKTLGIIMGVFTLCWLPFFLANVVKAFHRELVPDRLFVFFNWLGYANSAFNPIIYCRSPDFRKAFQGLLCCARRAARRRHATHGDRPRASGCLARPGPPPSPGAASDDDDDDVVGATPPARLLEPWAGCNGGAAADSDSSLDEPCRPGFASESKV", "conditions": "Compound concentration 10.0 uM"}, "[19]": {"molecular_target": "Histamine H1 receptor (Homo sapiens) (UniProt P35367)", "conditions": "Compound concentration 10.0 uM"}, "[20]": {"molecular_target": "Muscarinic acetylcholine receptor M3 (Homo sapiens) (UniProt P20309)", "sequence (P20309 whole entry, looked up)": "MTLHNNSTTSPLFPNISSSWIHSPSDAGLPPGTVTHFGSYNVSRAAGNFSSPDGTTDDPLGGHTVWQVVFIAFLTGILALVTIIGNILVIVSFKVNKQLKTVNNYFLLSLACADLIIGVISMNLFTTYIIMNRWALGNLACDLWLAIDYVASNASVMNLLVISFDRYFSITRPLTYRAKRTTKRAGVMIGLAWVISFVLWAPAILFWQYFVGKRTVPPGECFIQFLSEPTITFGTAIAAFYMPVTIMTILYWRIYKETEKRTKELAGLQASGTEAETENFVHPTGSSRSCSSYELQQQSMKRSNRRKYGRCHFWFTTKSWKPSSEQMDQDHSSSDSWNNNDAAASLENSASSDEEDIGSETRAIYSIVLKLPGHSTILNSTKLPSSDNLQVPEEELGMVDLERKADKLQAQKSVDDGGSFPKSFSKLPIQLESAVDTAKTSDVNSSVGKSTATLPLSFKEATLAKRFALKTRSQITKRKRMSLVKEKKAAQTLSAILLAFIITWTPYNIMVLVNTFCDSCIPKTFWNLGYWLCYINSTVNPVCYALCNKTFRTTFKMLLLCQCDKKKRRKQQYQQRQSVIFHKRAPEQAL", "conditions": "Compound concentration 10.0 uM"}}}
{"smiles": "O=C(O)c1cc(-c2ccc(C3CCNCC3)cc2)c2ccc(-c3ccc(C(F)(F)F)cc3)cc2c1", "note": "[PPTN]", "values": [{"measurement": "inhibition", "setting": "[1]", "value": 35, "unit": "%"}, {"measurement": "inhibition", "setting": "Rattus norvegicus [2]", "value": 17, "unit": "%"}, {"measurement": "inhibition at 60 min, 10 µM", "setting": "[3]", "value": "22% (not active)"}, {"measurement": "inhibition", "setting": "[4]; Compound concentration 0.01 uM", "value": 9, "unit": "%"}, {"measurement": "inhibition", "setting": "[4]; Compound concentration 0.1 uM", "value": 13, "unit": "%"}, {"measurement": "inhibition", "setting": "[4]; Compound concentration 1.0 uM", "value": 11, "unit": "%"}, {"measurement": "inhibition", "setting": "[4]; Compound concentration 10.0 uM", "value": 78, "unit": "%"}, {"measurement": "IC50", "setting": "[5]", "value": 4.07, "unit": "µM"}, {"measurement": "Ki", "setting": "[5]", "value": 1.53, "unit": "µM"}, {"measurement": "inhibition", "setting": "[6]", "value": 2, "unit": "%"}, {"measurement": "inhibition", "setting": "[7]", "value": 8, "unit": "%"}, {"measurement": "inhibition", "setting": "[8]", "value": 7, "unit": "%"}, {"measurement": "inhibition at 60 min, 10 µM", "setting": "[9]", "value": "3% (not active)"}, {"measurement": "inhibition", "setting": "Caspase-3 (Homo sapiens)", "value": 3, "unit": "%"}, {"measurement": "inhibition", "setting": "[10]", "value": 30, "unit": "%"}, {"measurement": "inhibition", "setting": "Caspase-7 (Homo sapiens)", "value": -6, "unit": "%"}, {"measurement": "inhibition", "setting": "Rattus norvegicus [11]", "value": -1, "unit": "%"}, {"measurement": "inhibition", "setting": "Homo sapiens [12]", "value": 26, "unit": "%"}, {"measurement": "inhibition", "setting": "[13]", "value": 12, "unit": "%"}, {"measurement": "IC50", "setting": "[14]", "value": 9.5, "unit": "µM"}, {"measurement": "Ki", "setting": "[14]", "value": 6.2, "unit": "µM"}, {"measurement": "inhibition", "setting": "Homo sapiens [15]; Compound concentration 0.01 uM", "value": 14, "unit": "%"}, {"measurement": "inhibition", "setting": "Homo sapiens [15]; Compound concentration 0.1 uM", "value": -5, "unit": "%"}, {"measurement": "inhibition", "setting": "Homo sapiens [15]; Compound concentration 1.0 uM", "value": 9, "unit": "%"}, {"measurement": "inhibition", "setting": "Homo sapiens [15]; Compound concentration 10.0 uM", "value": 51, "unit": "%"}, {"measurement": "inhibition", "setting": "Rattus norvegicus [16]", "value": 0, "unit": "%"}, {"measurement": "inhibition", "setting": "[17]", "value": 29, "unit": "%"}, {"measurement": "inhibition", "setting": "[18]", "value": 3, "unit": "%"}, {"measurement": "inhibition", "setting": "[19]", "value": -1, "unit": "%"}, {"measurement": "inhibition", "setting": "[20]", "value": 11, "unit": "%"}]}
